{"source": "patent US20140287495A1", "about": "“Methods of Inducing Differentiation of Stem Cells” (ES Cell International Pte LTD, priority 2001, published 2014)", "key": {"P19 EC cells [1]": {"tested_on": "P19 EC cells", "assay": "Induction of beating muscle in replated P19 EC aggregates (hanging-drop assay)", "format": "cell-based, mouse", "settings": "P19EC aggregates, day 10", "procedure": "END-2 cells and hES cells were cultured as described in Example 1. The hES2 cell line from ES Cell International Pte Ltd was used in all experiments. […] Co-cultures were then grown for up to 6 weeks and scored for the presence of areas of beating muscle from 5 days onwards. HepG2 cells, a carcinoma cell line resembling liver parenchymal cells (Knowles et al, (1980) Science 209:497-9), were cultured in DMEM plus 10% FCS and passaged twice weekly. […] Hanging-drop cultures of P19 EC cells were initiated and maintained in DMEM/Ham's F12 (1:1), as described previously (Mummery et al, 1991), using regular FCS while bulk production of P19 embryoid bodies in the presence or absence of END-2 conditioned medium for isolation of RNA for Northern blotting, was in the presence of charcoal-stripped FCS, as described (Mummery et al, 1991) to reduce background levels of cardiomyocyte differentiation caused by lipophilic substances possibly with retinoid-like activity in FCS. P19 clone 6 were cultured in aMEM and treated aMEM conditioned by END-2 cells. For electrophysiology, beating aggregates were dissociated using collagenase and replated on gelatine-coated coverslips. […]"}, "Brachyury T": {"tested_on": "Brachyury T", "assay": "Northern blot of Brachyury T expression in P19EC aggregates", "format": "cell-based, mouse", "settings": "FIG. 10B", "procedure": "(§1) END-2 cells and hES cells were cultured as described in Example 1. The hES2 cell line from ES Cell International Pte Ltd was used in all experiments. […] Co-cultures were then grown for up to 6 weeks and scored for the presence of areas of beating muscle from 5 days onwards. HepG2 cells, a carcinoma cell line resembling liver parenchymal cells (Knowles et al, (1980) Science 209:497-9), were cultured in DMEM plus 10% FCS and passaged twice weekly. […] Hanging-drop cultures of P19 EC cells were initiated and maintained in DMEM/Ham's F12 (1:1), as described previously (Mummery et al, 1991), using regular FCS while bulk production of P19 embryoid bodies in the presence or absence of END-2 conditioned medium for isolation of RNA for Northern blotting, was in the presence of charcoal-stripped FCS, as described (Mummery et al, 1991) to reduce background levels of cardiomyocyte differentiation caused by lipophilic substances possibly with retinoid-like activity in FCS. P19 clone 6 were cultured in aMEM and treated aMEM conditioned by END-2 cells. For electrophysiology, beating aggregates were dissociated using collagenase and replated on gelatine-coated coverslips.\nRNA was isolated from P19 aggregates and poly A+RNA selected, as described previously (Mummery et al, 1990, Dev. Biol. 142: 406-413).\nBackground differentiation levels are reduced virtually to zero if the FCS is passed over an activated charcoal column (DCC-FCS) to remove residual retinoids; in addition, differentiation is blocked by activin (van den Eijnden-van Raaij et al, 1991, Mech. Dev. 33:157-166). […] The P19EC assay system was preferred because these cells are feeder independent for undifferentiated growth. […] Moreover, the induction of Brachyury T is blocked by the additional presence of activin (FIG. 10B), consistent with its ability to block the formation of beating muscle in aggregates. The transient expression of Brachyury T is similar to that observed during early mesoderm differentiation during gastrulation of the mouse embryo."}, "[2]": {"tested_on": "hES-derived cardiomycytes", "assay": "Beating of hES-derived cardiomyocytes in response to pharmacological agonists", "format": "cell-based, human", "settings": "hES2/END-2 co-culture derived cardiomyocytes; basal beating 45-60 times per minute", "procedure": "as §1\nThe majority of the experiments described here were carried out using the hES2 cell line (Reubinoff et al, 2000). […] Oct-4 expression thus correlated with phenotypic characteristics of undifferentiated cells. hES cells were subcultured by transferring small clumps of undifferentiated cells either to new, mit.C-treated MEFs or confluent cultures of mit.C-treated END-2 cells. After approximately 5d under these conditions, epithelial cells became evident which over the next few days become fluid-filled cysts (FIG. 1A). […] In addition, by 10 d areas of rhythmically contracting cells in more solid aggregates become evident (FIG. 1A,3e) with a variety of overall morphologies (FIG. 1B,3e). […]"}, "P19 EC cells [3]": {"tested_on": "P19 EC cells", "settings": "END-2 conditioned medium induced differentiation; cited from earlier work"}}, "data": [{"compound": "C[S+](C)[O-]", "note": "[DMSO, dimethyl sulphoxide]", "values": [{"measurement": "aggregates beating", "setting": "P19 EC cells [1]", "result": "All aggregates beat"}, {"measurement": "Brachyury T (early mesoderm marker) expression", "setting": "Brachyury T; aggregation phase, first 3 days, Northern blot", "result": "induced"}]}, {"compound": "C[N+](C)(C)CCOC(N)=O", "note": "[carbachol]", "values": [{"measurement": "beating of hES-derived cardiomyocytes in response to agonist", "setting": "[2]", "result": "upregulated"}]}, {"compound": "CC(C)NCC(O)c1ccc(O)c(O)c1", "note": "(centres unmarked) [isoprenaline]", "values": [{"measurement": "beating of hES-derived cardiomyocytes in response to agonist", "setting": "[2]", "result": "upregulated"}]}, {"compound": "CNC[C@H](O)c1cccc(O)c1", "note": "[phenylephrine]", "values": [{"measurement": "beating of hES-derived cardiomyocytes in response to agonist", "setting": "[2]", "result": "upregulated"}]}, {"compound": "activin: factor that blocks Brachyury T induction and the formation of beating muscle in aggregates", "values": [{"measurement": "DMSO induced Brachyury T expression in presence of activin", "setting": "Brachyury T; P19EC aggregates", "result": "blocked"}, {"measurement": "END-2 CM induced Brachyury T expression in additional presence of activin", "setting": "Brachyury T; P19EC aggregates", "result": "blocked"}, {"measurement": "cardiomyocyte differentiation of P19 EC aggregates in presence of activin", "setting": "P19 EC cells [3]", "result": "blocked"}]}]}
